Results: article PMC4621755 (Chemistry & biology, 2015)

Target: T1, Acaa2 (Mus musculus, UniProt Q8BWT1)
T1 sequence (Q8BWT1 1-397): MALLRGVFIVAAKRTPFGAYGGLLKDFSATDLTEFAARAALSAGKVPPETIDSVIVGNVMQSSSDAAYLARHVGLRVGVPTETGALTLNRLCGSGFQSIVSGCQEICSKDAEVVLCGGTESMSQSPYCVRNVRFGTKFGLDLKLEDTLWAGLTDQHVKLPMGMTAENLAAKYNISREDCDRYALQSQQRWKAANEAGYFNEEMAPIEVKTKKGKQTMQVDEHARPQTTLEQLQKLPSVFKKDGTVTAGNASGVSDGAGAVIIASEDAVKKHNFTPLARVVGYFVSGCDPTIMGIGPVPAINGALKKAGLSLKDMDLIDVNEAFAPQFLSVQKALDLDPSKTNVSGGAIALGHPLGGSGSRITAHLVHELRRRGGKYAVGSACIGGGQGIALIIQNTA
Assay: competition against IAyne labelling, in-gel fluorescence
Assay type: biochemical
Settings: covalent; lysate of overexpressing HEK293T; 30 min preincubation

SMILES: N#Cc1c(Cl)c(Cl)c(Cl)c(C#N)c1Cl [chlorothalonil]
- % reduction in IAyne labeling at 100 nM: 9.4 ± 1.2%
